Data taken from US5393744A, “Glucosyl phosphotriesters of thymidine” (Institut Pasteur, priority 1988, dated 1995).

Columns and labels:
Assay type in all cases: cell-based
[1] = tested on: recombinant retrovirus of murine origin (MoMLV); test: Residual virus (clones of βgal+ cells) after infection of mouse 3T3 test cells with LacZ recombinant MoMLV retrovirus; settings: 3T3 cells; for residual virus (% not inhibited) at 100 µM / residual virus (% not inhibited) at 10 µM / residual virus (% not inhibited) at 1 µM / residual virus (% not inhibited) at 0.1 µM: NIH3T3, 48 hours after infection, mean of several experiments, read-out: % of the residual virus (not inhibited by the product); for residual virus (% not inhibited) at 100 µM: 10^-4 M; for residual virus (% not inhibited) at 10 µM: 10^-5 M; for residual virus (% not inhibited) at 1 µM: 10^-6 M; for residual virus (% not inhibited) at 0.1 µM: 10^-7 M
Procedure: The virus used is a recombinant retrovirus of murine origin (MoMLV) in which a reporter gene (LacZ) has been introduced.
Fixed amounts of LacZ recombinant retroviruses are placed in the presence of mouse infectable test cells (3T3) with or without the product to be tested. To each recombinant retrovirus corresponds a clone of β gal^+ cells. The number of clones of βgal^+ cells is read 48 hours after the infection. The % of the residual virus (not inhibited by the product) is indicated in the following table (mean of several independent experiments): […]

HIV-1 virus [2] = test: Infection of activated lymphocytes by the lysates of infected macrophages (co-culture, reverse transcriptase activity)
Procedure: (§1) The drugs 6651, AZT, 6714 and ddT were diluted in DMSO.
(§2) The virus HIV-1 utilized is derived from a culture supernatant of CEM-LAV 1 cells; these latter are maintained by the addition at each passage (every 3 or 4 days) of uninfected CEM cells. The titre of the virus in the clarified culture supernatant is higher than 10^6 cpm/ml in reverse transcriptase activity and 10^3 infectious units/ml on lymphocytes of sero-negative donors.
The lymphocytes were isolated from the peripheral blood of sero-negative donors on a Ficoll^R gradient (MSL, Eurobio). The lymphocytes thus obtained were stimulated with the phytohemaglutinin p(PHA-p) for 3 days before their utilization.
The lymphocytes are cultivated in RPMI 1640 medium, supplemented with 10% of fetal calf serum, 10% of interleukin 2, 2 μg/ml of polybrene, 1% of glutamine, 1% of antibiotics.
(§3) The macrophages were obtained from a deleucocytation pocket. The mononucleated cells were separated on a Ficoll^R gradient. The cells were adjusted to 50.10^6 cells/ml in the RPMI 1640 medium (MBA) containing 20% fetal calf serum (Flow), 10 mM Hepes (Sigma), 1% of PSN and 1% of glutamine (Gibco). After 1 h of incubation at 4° C. with gentle shaking, the macrophages agglutinate among themselves. The agglutinated macrophages are sedimented for 15 mn at 4° C. The supernatant containing an enrichment in lymphocytes was removed and the pellet enriched in macrophages was diluted to 5.10^6 cells/ml in the medium previously described. The cell suspension was then placed in Petri dishes of 60 mm diameter and placed at 37° C. for 1 h 30. The unattached cells are removed and the washed cell carpet was then detached with a scraper. The cells thus recovered were used directly for the study.
(§4) For this study, the production of HIV-1 virus by infected macrophages in the presence or absence of the drugs 6714 or ddT and 6651 or AZT were monitored either in continuous culture for at least 30 days or after lysis of the macrophages at day +14 and infection of lymphocytes by this lysate.
The quantity of cells placed in culture and the conditions of infection are identical with those previously described.
At day 14 after infection, the macrophages were lysed by two successive freezings to -20° C. and thawings at 37° C. The lysate recovered was then utilized as inoculum to infect 3.10^6 activated lymphocytes derived from a sero-negative donor. After 1 h of absorption, the lymphocytes were adjusted to 10^6 cells per ml and the drugs were added at the concentrations corresponding to those of the lysate.
The lymphocytes were subcultured every 3 or 4 days and an assay of the reverse transcriptase was carried out starting from the culture supernatant at each passage.
(§5) 3) Measurement of the reverse transcriptase activity
(§6) The reverse transcriptase activity is assayed starting from 1 ml of culture supernatant concentrated 100 times by ultra-centrifugation for 5 mn at 95.000 rpm (Rotor TL 100^R Beckman).
(§7) The pellet is resuspended in 10 μl of NTE Triton^R ×100 0.1%.
(§8) After 1 h at 37° C., the acid-insoluble products are precipitated by 20% trichloroacetic acid, filtered onto 0.45μ Millipore^R and the B radioactivity is measured with the aid of a Kontron scintillation counter.

HIV-1 virus [3] = test: Replication of HIV-1 in macrophages of sero-negative donors, continuous culture (reverse transcriptase activity)
Procedure: as §1, §2, §3, §4
For each test, 15.10^6 cells were or were not infected with the HIV-1 virus (6000 cpm/10^6 cells). After 1 h of absorption at 37° C., the cells were placed in 6-wells Costar plates and 5.10^-5 M or 10^-5 M of the drugs 6714 and ddT and 10^-5 M, 10^-6 M or 10^-7 M of the drugs 6651 and AZT were added to the culture medium. The medium was changed every 3 or 4 days and the reverse transcriptase activity was determined in the culture supernatant. The drugs were added at each passage to the culture medium at the respective concentrations indicated above.
as §5, §6, §7, §8

**Q.** Which residual virus (% not inhibited) at 100 µM [1] does the source give for Cc1cn([C@H]2C[C@H](N=[N+]=[N-])[C@@H](COP(=O)(O)OC[C@H]3OC(O)[C@H](O)[C@@H](O)[C@@H]3O)O2)c(=O)[nH]c1=O (stereo partly shown) [compound 6715, 6-glucosyl 5' (3'-azido)-thymidinyl phosphate] here?
**A.** 0%

**Q.** And the residual virus (% not inhibited) at 10 µM [1]?
**A.** 0%

**Q.** What about the residual virus (% not inhibited) at 1 µM [1] of the same molecule?
**A.** 3%

**Q.** Which results are given for Cc1cn([C@H]2CC[C@@H](CO)O2)c(=O)[nH]c1=O [ddT, 3'-deoxy-thymidine, reference compound]?
**A.** viral production by activated lymphocytes (HIV-1 virus [2]; 5.10^-5 M): seems to be lower; viral production by activated lymphocytes, compared to untreated lysate (HIV-1 virus [2]; 10^-5 M): comparable to the untreated lysate; viral production by activated lymphocytes with lysates of infected treated macrophages (general statement) (HIV-1 virus [2]; lysate at day 14): make it possible to obtain a vital production by activated lymphocytes; multiplication of the HIV-1 virus in the macrophages (HIV-1 virus [2]; whatever the concentration tested, 5.10^-6 M or 10^-5 M): there is multiplication of the HIV-1 virus in the macrophages, but the escape of the virus seems to be blocked; proliferation of the HIV-1 virus in the macrophages (HIV-1 virus [3]; 5.10^-5 M and 10^-5 M): block the proliferation of the HIV-1 virus in the macrophages; residual virus (% not inhibited) at 10 µM [1]: 78%; residual virus (% not inhibited) at 1 µM [1]: 87%; residual virus (% not inhibited) at 0.1 µM [1]: 101%

**Q.** How did the “viral production on the lymphocytes with the lysates of treated macrophages” value (HIV-1 virus [2]; 10^-5 M, 10^-6 M and 10^-7 M (FIG. 4d)) turn out when Cc1cn([C@H]2C[C@H](N=[N+]=[N-])[C@@H](CO)O2)c(=O)[nH]c1=O [AZT, 3'-azido 3'-deoxythymidine, reference compound] was run?
**A.** no viral production is obtained on the lymphocytes

**Q.** What about the “multiplication of the HIV-1 virus at the interior of the macrophage” value (HIV-1 virus [2]; whatever the concentration tested, 10^-5 M, 10^-6 M and 10^-7 M) of the same molecule?
**A.** there is no multiplication of the HIV-1 virus at the interior of the macrophage

**Q.** And the “proliferation of the HIV-1 virus in the macrophages” value (HIV-1 virus [3]; 10^-5 M, 10^-6 M and 10^-7 M)?
**A.** block the proliferation of the HIV-1 virus in the macrophages

**Q.** And the residual virus (% not inhibited) at 100 µM [1]?
**A.** 0%

**Q.** What about the residual virus (% not inhibited) at 10 µM [1] of the same molecule?
**A.** 0%

**Q.** What about the residual virus (% not inhibited) at 1 µM [1] of the same molecule?
**A.** 0%

**Q.** And the residual virus (% not inhibited) at 0.1 µM [1]?
**A.** 1%

**Q.** What about the “retroviral activity (in words)” value ([1]; recombinant MoMLV) of the same molecule?
**A.** active by themselves

**Q.** How did the residual virus (% not inhibited) at 10 µM [1] turn out when CCCCCCCCCCCCCCCCOP(=O)(OCC1CCC(n2cc(C)c(=O)[nH]c2=O)O1)OCC1OC(O)C(O)C(O)C1O (stereo not shown) [compound 6650, 6-glucosyl hexadecyl 5'-(3'-deoxy) thymidinyl] was run?
**A.** 79%

**Q.** And the residual virus (% not inhibited) at 1 µM [1]?
**A.** 78%

**Q.** And the residual virus (% not inhibited) at 0.1 µM [1]?
**A.** 96%
